Reference: ChEMBL document CHEMBL1125949, “Synthesis and biological evaluation of 3-amino-2-(4-chlorophenyl)1,1-difluoropropyl phosphonic acid” (Bioorg Med Chem Lett, 1991)

Species on record: Rattus norvegicus
Assay: GABA-B agonistic activity in rat anococcygeus
Type: functional

EC50: ~300 µM
SMILES: NCC(c1ccc(Cl)cc1)C(F)(F)P(=O)(O)O (stereo unspecified)
